Patent US20230015478A1, “GLP-1 RECEPTOR AGONISTS HAVING IMPROVED PHARMACOLOGICAL AND DRUG DELIVERY PROPERTIES” (priority 2021, published 2023)
Square brackets hold non-standard residues; d marks the D form. Peptide text beside a SMILES is read from it. Phe(2-NO2) = N[C@@H](Cc1ccccc1[N+](=O)[O-])C(=O)O; Phe(3,4,5-F3) = N[C@@H](Cc1cc(F)c(F)c(F)c1)C(=O)O; Phe(3-CF3) = N[C@@H](Cc1cccc(C(F)(F)F)c1)C(=O)O; Phe(F5) = N[C@@H](Cc1c(F)c(F)c(F)c(F)c1F)C(=O)O; Phe(2-CF3) = N[C@@H](Cc1ccccc1C(F)(F)F)C(=O)O; Phe(2,6-F2) = N[C@@H](Cc1c(F)cccc1F)C(=O)O; Bip = N[C@@H](Cc1ccc(-c2ccccc2)cc1)C(=O)O; Phe(2-CN) = N#Cc1ccccc1C[C@H](N)C(=O)O; Phe(2-F) = N[C@@H](Cc1ccccc1F)C(=O)O; Phe(2-Me) = Cc1ccccc1C[C@H](N)C(=O)O; hPhe = N[C@@H](CCc1ccccc1)C(=O)O; Aib = CC(C)(N)C(=O)O

The compounds below were run against T1, hGLP1 receptor (Homo sapiens, UniProt P43220) (assay: cAMP HTRF agonist assay in HEK cells co-expressing hGLP1 receptor and CRE-Luciferase). Details: Table 1; cells marked (0% albumin); read-out: cAMP EC50, nM (0% albumin).
T1 construct: expressed in transfected cells; host or cells: HEK (human embryonic kidney) cells co-expressing hGLP1 receptor and CRE-Luciferase
Format: cell-based
Experimental: Human embryonic kidney cells (HEK) co-expressing the hGLP1 receptor and CRE-Luciferase construct were used to determine agonist potency in this assay. The cells were thawed briefly at 37° C., transferred to a sterile tube and re-suspended in complete media at 37° C. Cells were centrifuged at 1000 rpm for 5 minutes and cells collected; cells were re-suspended in assay buffer consisting of DPBS (GIBCO) with 500 μM of the phosphodiesterase inhibitor IBMX. […] The optimal cell density was determined to be 1000 cells/well; cells were added to wells in 384-well plates containing appropriate pre-prepared dilutions of compounds (test peptides or reference compound exendin-4), sealed and incubated with CO2 for 30 min. Test peptide solutions were diluted from 10 mM stock solutions; for most peptides an initial run was performed in duplicate from a maximal concentration of 1.0 μM, with 11 concentrations tested for each peptide using serial 1:3 dilution from this maximal concentration. […] The agonist assay was a homogeneous time-resolved fluorescence (HTRF) assay (Cisbio).
Following incubation of the cells for 30 minutes with test or reference peptides, 5 μL of the cAMP acceptor cAMP-d2, prepared previously as a working solution from frozen stock (1:20 dilution), was added to each well of the assay plate, along with 5 μL of anti-cAMP antibody-cryptate working solution (diluted 1:20 from frozen stock). The wells were incubated for 1 hour at room temperature, and fluorescence was then read at 665 and 615 nm with an Envision reader with TRF laser. Data were saved and analyzed using Prism software (GraphPad). Concentration-response analysis was performed using 4-parameter logistic fits of the resulting data, and EC50 values obtained for each test and reference compound.

T1 sequence (P43220 24-463): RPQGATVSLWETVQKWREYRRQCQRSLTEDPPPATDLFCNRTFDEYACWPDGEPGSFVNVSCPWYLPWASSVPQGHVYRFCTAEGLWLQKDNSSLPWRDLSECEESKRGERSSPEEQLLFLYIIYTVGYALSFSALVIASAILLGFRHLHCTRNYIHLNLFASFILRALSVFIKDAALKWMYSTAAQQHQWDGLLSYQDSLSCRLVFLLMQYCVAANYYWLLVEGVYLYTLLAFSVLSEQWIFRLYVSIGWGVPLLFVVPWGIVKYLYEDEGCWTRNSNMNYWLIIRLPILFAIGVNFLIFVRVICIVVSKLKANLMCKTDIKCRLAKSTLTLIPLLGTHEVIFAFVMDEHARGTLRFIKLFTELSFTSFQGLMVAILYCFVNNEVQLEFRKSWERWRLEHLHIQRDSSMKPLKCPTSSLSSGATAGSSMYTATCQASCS

SMILES | EC50
C[C@@H](O)[C@H](NC(=O)CNC(=O)[C@H](CCC(=O)O)NC(=O)C(C)(C)NC(=O)[C@@H](N)Cc1c[nH]cn1)C(=O)N[C@@H](Cc1c(F)cccc1F)C(=O)N[C@H](C(=O)N[C@@H](CO)C(=O)N[C@@H](CC(=O)O)C(=O)N[C@@H](Cc1ccc(-c2ccccc2)cc1)C(=O)N[C@@H](Cc1ccc(-c2ccccc2)cc1)C(N)=O)[C@@H](C)O [3-8, H2N-His-Aib-Glu-Gly-Thr-Phe(2,6F)-Thr-Ser-Asp-Bip-Bip-C(O)NH2] (H-H[Aib]EGT[Phe(2,6-F2)]TSD[Bip][Bip]-NH2) | 0.16 nM
C[C@H](NC(=O)[C@@H](NC(=O)CNC(=O)[C@H](CCC(=O)O)NC(=O)C(C)(C)NC(=O)[C@@H](N)Cc1c[nH]cn1)[C@@H](C)O)C(=O)N[C@H](C(=O)N[C@@H](CO)C(=O)N[C@@H](CC(=O)O)C(=O)N[C@@H](Cc1ccc(-c2ccccc2)cc1)C(=O)N[C@@H](Cc1ccc(-c2ccccc2)cc1)C(N)=O)[C@@H](C)O [3-19, H2N-His-Aib-Glu-Gly-Thr-Ala-Thr-Ser-Asp-Bip-Bip-C(O)NH2] (H-H[Aib]EGTATSD[Bip][Bip]-NH2) | 2800 nM

Same assay, conditions: cAMP EC50, nM (0.1% albumin), Table 1; 0.1% albumin

SMILES | EC50
C[C@@H](O)[C@H](NC(=O)CNC(=O)[C@H](CCC(=O)O)NC(=O)C(C)(C)NC(=O)[C@@H](N)Cc1c[nH]cn1)C(=O)N[C@@H](Cc1ccccc1C(F)(F)F)C(=O)N[C@H](C(=O)N[C@@H](CO)C(=O)N[C@@H](CC(=O)O)C(=O)N[C@@H](Cc1ccc(-c2ccccc2)cc1)C(=O)N[C@@H](Cc1ccc(-c2ccccc2)cc1)C(N)=O)[C@@H](C)O [3-3, H2N-His-Aib-Glu-Gly-Thr-Phe(2-CF3)-Thr-Ser-Asp-Bip-Bip-C(O)NH2] (H-H[Aib]EGT[Phe(2-CF3)]TSD[Bip][Bip]-NH2) | 97.1 nM
Cc1ccccc1C[C@H](NC(=O)[C@@H](NC(=O)CNC(=O)[C@H](CCC(=O)O)NC(=O)C(C)(C)NC(=O)[C@@H](N)Cc1c[nH]cn1)[C@@H](C)O)C(=O)N[C@H](C(=O)N[C@@H](CO)C(=O)N[C@@H](CC(=O)O)C(=O)N[C@@H](Cc1ccc(-c2ccccc2)cc1)C(=O)N[C@@H](Cc1ccc(-c2ccccc2)cc1)C(N)=O)[C@@H](C)O [3-4, H2N-His-Aib-Glu-Gly-Thr-Phe(2-CH3)-Thr-Ser-Asp-Bip-Bip-C(O)NH2] (H-H[Aib]EGT[Phe(2-Me)]TSD[Bip][Bip]-NH2) | 9.55 nM
C[C@@H](O)[C@H](NC(=O)CNC(=O)[C@H](CCC(=O)O)NC(=O)C(C)(C)NC(=O)[C@@H](N)Cc1c[nH]cn1)C(=O)N[C@@H](Cc1ccccc1[N+](=O)[O-])C(=O)N[C@H](C(=O)N[C@@H](CO)C(=O)N[C@@H](CC(=O)O)C(=O)N[C@@H](Cc1ccc(-c2ccccc2)cc1)C(=O)N[C@@H](Cc1ccc(-c2ccccc2)cc1)C(N)=O)[C@@H](C)O [3-5, H2N-His-Aib-Glu-Gly-Thr-Phe(2-NO2)-Thr-Ser-Asp-Bip-Bip-C(O)NH2] (H-H[Aib]EGT[Phe(2-NO2)]TSD[Bip][Bip]-NH2) | 6.67 nM
C[C@@H](O)[C@H](NC(=O)CNC(=O)[C@H](CCC(=O)O)NC(=O)C(C)(C)NC(=O)[C@@H](N)Cc1c[nH]cn1)C(=O)N[C@@H](Cc1ccccc1C#N)C(=O)N[C@H](C(=O)N[C@@H](CO)C(=O)N[C@@H](CC(=O)O)C(=O)N[C@@H](Cc1ccc(-c2ccccc2)cc1)C(=O)N[C@@H](Cc1ccc(-c2ccccc2)cc1)C(N)=O)[C@@H](C)O [3-6, H2N-His-Aib-Glu-Gly-Thr-Phe(2-CN)-Thr-Ser-Asp-Bip-Bip-C(O)NH2] (H-H[Aib]EGT[Phe(2-CN)]TSD[Bip][Bip]-NH2) | 33.1 nM
C[C@@H](O)[C@H](NC(=O)CNC(=O)[C@H](CCC(=O)O)NC(=O)C(C)(C)NC(=O)[C@@H](N)Cc1c[nH]cn1)C(=O)N[C@@H](Cc1cccc(C(F)(F)F)c1)C(=O)N[C@H](C(=O)N[C@@H](CO)C(=O)N[C@@H](CC(=O)O)C(=O)N[C@@H](Cc1ccc(-c2ccccc2)cc1)C(=O)N[C@@H](Cc1ccc(-c2ccccc2)cc1)C(N)=O)[C@@H](C)O [3-7, H2N-His-Aib-Glu-Gly-Thr-Phe(3-CF3)-Thr-Ser-Asp-Bip-Bip-C(O)NH2] (H-H[Aib]EGT[Phe(3-CF3)]TSD[Bip][Bip]-NH2) | 97.5 nM
C[C@@H](O)[C@H](NC(=O)CNC(=O)[C@H](CCC(=O)O)NC(=O)C(C)(C)NC(=O)[C@@H](N)Cc1c[nH]cn1)C(=O)N[C@@H](Cc1cc(F)c(F)c(F)c1)C(=O)N[C@H](C(=O)N[C@@H](CO)C(=O)N[C@@H](CC(=O)O)C(=O)N[C@@H](Cc1ccc(-c2ccccc2)cc1)C(=O)N[C@@H](Cc1ccc(-c2ccccc2)cc1)C(N)=O)[C@@H](C)O [3-9, H2N-His-Aib-Glu-Gly-Thr-Phe(3,4,5-F)-Thr-Ser-Asp-Bip-Bip-C(O)NH2] (H-H[Aib]EGT[Phe(3,4,5-F3)]TSD[Bip][Bip]-NH2) | 44.6 nM
C[C@@H](O)[C@H](NC(=O)CNC(=O)[C@H](CCC(=O)O)NC(=O)C(C)(C)NC(=O)[C@@H](N)Cc1c[nH]cn1)C(=O)N[C@@H](Cc1c(F)c(F)c(F)c(F)c1F)C(=O)N[C@H](C(=O)N[C@@H](CO)C(=O)N[C@@H](CC(=O)O)C(=O)N[C@@H](Cc1ccc(-c2ccccc2)cc1)C(=O)N[C@@H](Cc1ccc(-c2ccccc2)cc1)C(N)=O)[C@@H](C)O [3-10, H2N-His-Aib-Glu-Gly-Thr-Phe(2,3,4,5,6-F)-Thr-Ser-Asp-Bip-Bip-C(O)NH2] (H-H[Aib]EGT[Phe(F5)]TSD[Bip][Bip]-NH2) | 1.8 nM
C[C@@H](O)[C@H](NC(=O)CNC(=O)[C@H](CCC(=O)O)NC(=O)C(C)(C)NC(=O)[C@@H](N)Cc1c[nH]cn1)C(=O)N[C@@H](CCc1ccccc1)C(=O)N[C@H](C(=O)N[C@@H](CO)C(=O)N[C@@H](CC(=O)O)C(=O)N[C@@H](Cc1ccc(-c2ccccc2)cc1)C(=O)N[C@@H](Cc1ccc(-c2ccccc2)cc1)C(N)=O)[C@@H](C)O [3-11, H2N-His-Aib-Glu-Gly-Thr-hPhe-Thr-Ser-Asp-Bip-Bip-C(O)NH2] (H-H[Aib]EGT[hPhe]TSD[Bip][Bip]-NH2) | 32.6 nM
C[C@@H](O)[C@H](NC(=O)CNC(=O)[C@H](CCC(=O)O)NC(=O)C(C)(C)NC(=O)[C@@H](N)Cc1c[nH]cn1)C(=O)N[C@@H](Cc1ccc(O)cc1)C(=O)N[C@H](C(=O)N[C@@H](CO)C(=O)N[C@@H](CC(=O)O)C(=O)N[C@@H](Cc1ccc(-c2ccccc2)cc1)C(=O)N[C@@H](Cc1ccc(-c2ccccc2)cc1)C(N)=O)[C@@H](C)O [3-12, H2N-His-Aib-Glu-Gly-Thr-Tyr-Thr-Ser-Asp-Bip-Bip-C(O)NH2] (H-H[Aib]EGTYTSD[Bip][Bip]-NH2) | 7.3 nM
C[C@@H](O)[C@H](NC(=O)CNC(=O)[C@H](CCC(=O)O)NC(=O)C(C)(C)NC(=O)[C@@H](N)Cc1c[nH]cn1)C(=O)N[C@H](Cc1ccccc1)C(=O)N[C@H](C(=O)N[C@@H](CO)C(=O)N[C@@H](CC(=O)O)C(=O)N[C@@H](Cc1ccc(-c2ccccc2)cc1)C(=O)N[C@@H](Cc1ccc(-c2ccccc2)cc1)C(N)=O)[C@@H](C)O [3-13, H2N-His-Aib-Glu-Gly-Thr-D-Phe-Thr-Ser-Asp-Bip-Bip-C(O)NH2] (H-H[Aib]EGT[dF]TSD[Bip][Bip]-NH2) | 57 nM
C[C@@H](O)[C@H](NC(=O)CNC(=O)[C@H](CCC(=O)O)NC(=O)C(C)(C)NC(=O)[C@@H](N)Cc1c[nH]cn1)C(=O)N[C@@H](Cc1c[nH]c2ccccc12)C(=O)N[C@H](C(=O)N[C@@H](CO)C(=O)N[C@@H](CC(=O)O)C(=O)N[C@@H](Cc1ccc(-c2ccccc2)cc1)C(=O)N[C@@H](Cc1ccc(-c2ccccc2)cc1)C(N)=O)[C@@H](C)O [3-14, H2N-His-Aib-Glu-Gly-Thr-Trp-Thr-Ser-Asp-Bip-Bip-C(O)NH2] (H-H[Aib]EGTWTSD[Bip][Bip]-NH2) | 67.6 nM
C[C@@H](O)[C@H](NC(=O)CNC(=O)[C@H](CCC(=O)O)NC(=O)C(C)(C)NC(=O)[C@@H](N)Cc1c[nH]cn1)C(=O)N[C@@H](Cc1ccc(-c2ccccc2)cc1)C(=O)N[C@H](C(=O)N[C@@H](CO)C(=O)N[C@@H](CC(=O)O)C(=O)N[C@@H](Cc1ccc(-c2ccccc2)cc1)C(=O)N[C@@H](Cc1ccc(-c2ccccc2)cc1)C(N)=O)[C@@H](C)O [3-15, H2N-His-Aib-Glu-Gly-Thr-Bip-Thr-Ser-Asp-Bip-Bip-C(O)NH2] (H-H[Aib]EGT[Bip]TSD[Bip][Bip]-NH2) | 26.2 nM
C[C@@H](O)[C@H](NC(=O)CNC(=O)[C@H](CCC(=O)O)NC(=O)C(C)(C)NC(=O)[C@@H](N)Cc1c[nH]cn1)C(=O)NC(C)(C)C(=O)N[C@H](C(=O)N[C@@H](CO)C(=O)N[C@@H](CC(=O)O)C(=O)N[C@@H](Cc1ccc(-c2ccccc2)cc1)C(=O)N[C@@H](Cc1ccc(-c2ccccc2)cc1)C(N)=O)[C@@H](C)O [3-18, H2N-His-Aib-Glu-Gly-Thr-Aib-Thr-Ser-Asp-Bip-Bip-C(O)NH2] (H-H[Aib]EGT[Aib]TSD[Bip][Bip]-NH2) | 152 nM

Same assay, conditions: cAMP EC50, nM (0.1% albumin), Table 2; 0.1% albumin

SMILES | EC50
C[C@H](N)C(=O)NC(C)(C)C(=O)N[C@@H](CCC(=O)O)C(=O)NCC(=O)N[C@H](C(=O)N[C@@H](Cc1ccccc1F)C(=O)N[C@H](C(=O)N[C@@H](CO)C(=O)N[C@@H](CC(=O)O)C(=O)N[C@@H](Cc1ccc(-c2ccccc2)cc1)C(=O)N[C@@H](Cc1ccc(-c2ccccc2)cc1)C(N)=O)[C@@H](C)O)[C@@H](C)O [3-20, H2N-Ala-Aib-Glu-Gly-Thr-Phe(2-F)-Thr-Ser-Asp-Bip-Bip-C(O)NH2] (H-A[Aib]EGT[Phe(2-F)]TSD[Bip][Bip]-NH2) | 66 nM
